Data reported in the supplement of paper PMC10307832.

Columns and labels:
Assay in all cases: relative viability (nuclei count vs DMSO), 5 days (fraction); higher = more cells survive
[1] = compound: Cc1ccc2nc(NCCN)c3ncc(C)n3c2c1 + Nc1nc2[nH]cc(CCc3ccc(C(=O)N[C@@H](CCC(=O)O)C(=O)O)cc3)c2c(=O)[nH]1 [Pemetrexed] (partner 0.2 µM)
How it was run: (§1)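 After 5 days of treatment, lung cancer cells in 1536-well plates were fixed and stained in a single step (final 0.05% Triton X-100, 1% formaldehyde, 1 ug/ml Hoechst) and their nuclei counted on 4× images. Treatment had been applied by pin tool the day after seeding as one drug alone or as a fixed anchor-drug dose with five library-drug doses (not always all listed) in √10 steps. Relative viability is the nuclei count of treated wells divided by that of vehicle wells, and values are medians of duplicate plates.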

[2] = compound: O=C(/C=C/c1ccccc1)NC(NC(=S)Nc1cccc2cccnc12)C(Cl)(Cl)Cl [Salubrinal] + COc1cccc2cc(-c3nc([C@H]4CC[C@H](C(=O)O)CC4)n4ncnc(N)c34)[nH]c12 [OSI-027] (partner 0.5 µM)
How it was run: as §1

[3] = compound: Cc1ccc2nc(NCCN)c3ncc(C)n3c2c1 + CCNC(=O)c1noc(-c2cc(C(C)C)c(O)cc2O)c1-c1ccc(CN2CCOCC2)cc1 [Luminespib] (partner 0.01 µM)
How it was run: as §1

[4] = compound: Cc1ccc2nc(NCCN)c3ncc(C)n3c2c1 + C[C@@H](Oc1cc(-c2cnn(C3CCNCC3)c2)cnc1N)c1c(Cl)ccc(F)c1Cl [Crizotinib] (partner 1 µM)
How it was run: as §1

Cell Line | relative viability ([1]; first compound 0.04 µM) | relative viability ([1]; first compound 0.1265 µM) | relative viability ([1]; first compound 0.4 µM) | relative viability ([1]; first compound 1.265 µM) | relative viability ([1]; first compound 4 µM) | relative viability ([2]; first compound 0.08 µM) | relative viability ([2]; first compound 0.253 µM) | relative viability ([2]; first compound 0.8 µM) | relative viability ([2]; first compound 2.53 µM) | relative viability ([2]; first compound 8 µM) | relative viability ([3]; first compound 0.04 µM) | relative viability ([3]; first compound 0.1265 µM) | relative viability ([3]; first compound 0.4 µM) | relative viability ([3]; first compound 1.265 µM) | relative viability ([3]; first compound 4 µM) | relative viability ([4]; first compound 0.04 µM) | relative viability ([4]; first compound 0.1265 µM) | relative viability ([4]; first compound 0.4 µM) | relative viability ([4]; first compound 1.265 µM) | relative viability ([4]; first compound 4 µM)
NCI-H596 | 0.484 | 0.447 | 0.506 | 0.515 | 0.49 | 0.657 | 0.721 | 0.793 | 0.716 | 0.646 | 1.12 | 0.959 | 0.967 | 0.215 | 1.05 | 1.06 | 0.929 | 1.03 | 0.961 | 0.851
A-427 | 0.979 | 0.939 | 1.02 | 0.95 | 0.948 | 0.409 | 0.516 | 0.568 | 0.437 | 0.452 | 1.1 | 0.784 | 0.993 | 1.02 | 0.846 | 1.01 | 1.01 | 0.835 | 0.966 | 0.942
EMC-BAC-2 | 0.463 | 0.43 | 0.4 | 0.448 | 0.496 | 0.364 | 0.359 | 0.41 | 0.384 | 0.427 | 1.21 | 1.2 | 1.19 | 1.2 | 1.13 | 0.761 | 0.728 | 0.735 | 0.733 | 0.775
NCI-H441 | 0.301 | 0.288 | 0.269 | 0.268 | 0.261 | 0.603 | 0.59 | 0.678 | 0.573 | 0.506 | 0.285 | 0.482 | 0.312 | 0.465 | 0.322 | 0.904 | 0.665 | 0.684 | 0.617 | 0.947
LCLC-103H | 0.503 | 0.51 | 0.5 | 0.467 | 0.494 | 0.494 | 0.393 | 0.5 | 0.49 | 0.398 | 0.887 | 0.927 | 0.931 | 0.925 | 0.858 | 1.07 | 1.03 | 1.05 | 1.07 | 1.06
HCC-827 | 0.261 | 0.242 | 0.273 | 0.24 | 0.266 | 0.88 | 0.794 | 0.822 | 0.788 | 0.668 | 0.741 | 0.589 | 0.689 | 0.58 | 0.8 | 0.792 | 0.903 | 0.932 | 0.866 | 0.927
NCI-H1355 | 1.05 | 1.16 | 0.987 | 1.03 | 0.971 | 0.409 | 0.341 | 0.505 | 0.4 | 0.398 | 0.844 | 0.73 | 0.722 | 0.691 | 0.732 | 1.1 | 1.15 | 1.04 | 1.01 | 0.983
NCI-H1734 | 0.438 | 0.395 | 0.413 | 0.48 | 0.496 | 0.724 | 0.572 | 0.633 | 0.542 | 0.636 | 0.217 | 0.251 | 0.197 | 0.184 | 0.176 | 0.673 | 0.733 | 0.747 | 0.607 | 0.706
HARA | 0.217 | 0.237 | 0.226 | 0.236 | 0.234 | 0.539 | 0.557 | 0.582 | 0.524 | 0.462 | 0.822 | 0.753 | 0.622 | 0.681 | 0.681 | 0.951 | 0.916 | 1.02 | 0.746 | 0.917
HCC-15 | 0.233 | 0.203 | 0.223 | 0.252 | 0.236 | 0.722 | 0.665 | 0.824 | 0.666 | 0.644 | 0.463 | 0.239 | 0.258 | 0.373 | 0.16 | 0.791 | 0.8 | 0.779 | 0.742 | 0.693
LCLC-97TM1 | 0.171 | 0.178 | 0.211 | 0.175 | 0.145 | 0.574 | 0.433 | 0.671 | 0.56 | 0.601 | 0.761 | 0.713 | 0.752 | 0.699 | 0.678 | 0.379 | 0.394 | 0.255 | 0.287 | 0.293
RERF-LC-KJ | 0.489 | 0.474 | 0.435 | 0.485 | 0.518 | 0.595 | 0.512 | 0.58 | 0.548 | 0.437 | 1.13 | 1.14 | 1.26 | 1.17 | 0.715 | 0.829 | 0.791 | 0.777 | 0.722 | 0.789
NCI-H1651 | 0.578 | 0.639 | 0.647 | 0.591 | 0.502 | 0.954 | 0.599 | 0.794 | 0.827 | 0.563 | 0.801 | 0.805 | 0.997 | 0.836 | 0.839 | 0.732 | 0.795 | 0.838 | 0.888 | 0.814
NCI-H1793 | 0.951 | 0.85 | 0.846 | 0.714 | 0.766 | 0.308 | 0.331 | 0.307 | 0.23 | 0.236 | 0.577 | 0.168 | 0.182 | 0.181 | 0.215 |  |  |  |  | 
NCI-H2023 | 0.254 | 0.241 | 0.235 | 0.503 | 0.171 | 0.442 | 0.354 | 0.406 | 0.333 | 0.268 | 0.782 | 0.68 | 0.764 | 0.782 | 0.264 | 0.702 | 0.652 | 0.733 | 0.767 | 0.414
LC-2-ad | 0.303 | 0.276 | 0.268 | 0.275 | 0.291 | 0.91 | 0.797 | 1.03 | 0.818 | 0.782 | 0.891 | 0.947 | 1.13 | 1.04 | 0.798 | 0.467 | 0.448 | 0.44 | 0.406 | 0.476
NCI-H1703 |  |  |  |  |  |  |  |  |  |  |  |  |  |  |  | 0.89 | 0.679 | 0.623 | 0.709 | 0.563
